Patent EP0745599A2, “1-(3-Heterocyclylphenyl)-s-triazine-2,4,6-oxo or thiotrione herbicidal agents” (American Cyanamid Company, priority 1995, dated 1996)

How the values were obtained:
Type in all cases: in vivo
Conditions in all cases: rated four to five weeks after treatment
CHENOPODIUM ALBUM, L. [1] = experiment: Preemergence herbicidal evaluation, CHEAL (Lambsquarters, Common)
Summary of the method: (§1)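 Seeds sown on potting soil in cups; soil surface sprayed with aqueous acetone solution of test compound at about 0.125 to 0.50 kg per hectare. Greenhouse-grown, rated four to five weeks after treatment on a 0-9 visual scale (stand, vigor, malformation, size, chlorosis) versus untreated control.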

[2] = system: AMBROSIA ARTEMISIIFOLIA, L.; experiment: Preemergence herbicidal evaluation, AMBEL (Ragweed, Common)
Summary of the method: as §1

CHENOPODIUM ALBUM, L. [3] = experiment: Postemergence herbicidal evaluation, CHEAL (Lambsquarters, Common)
Method: In the tests, seedling plants are grown in jiffy flats for about two weeks. The test compounds are dispersed in 50/50 acetone/water mixtures containing 0.5% TWEEN®20, a polyoxyethylene sorbitan monolaurate surfactant of Atlas Chemical Industries, in sufficient quantities to provide the equivalent of about 0.125 kg to 0.500 kg per hectare of active compound when applied to the plants through a spray nozzle operating at 40 psi for a predetermined time. After spraying, the plants are placed on greenhouse benches and are cared for in the usual manner, commensurate with conventional greenhouse practices. From four to five weeks after treatment, the seedling plants are examined and rated according to the rating system set forth below. Where more than one test is involved for a given compound, the data are averaged.
Results of herbicide evaluation are expressed on a rating scale (0-9). The scale is based upon a visual observation of plant stand, vigor, malformation, size, chlorosis and overall plant appearance as compared with a control.

[4] = system: GLYCINE MAX(L)MERR. CV. WILLIAMS; experiment: Preemergence herbicidal evaluation, GLXMAW (Soybean, Williams)
Summary of the method: as §1

CASSIA OBTUSIFOLIA, L. = experiment: Preemergence herbicidal evaluation, CASOB (Sicklepod)
Summary of the method: as §1

[5] = system: ECHINOCHLOA CRUS-GALLI, (L) BEAU; experiment: Preemergence herbicidal evaluation, ECHCG (Barnyardgrass)
Summary of the method: as §1

IPOMOEA SPP. = experiment: Preemergence herbicidal evaluation, IPOSS (Morningglory Spp.)
Summary of the method: as §1

[6] = system: SETARIA VIRIDIS, (L) BEAU; experiment: Preemergence herbicidal evaluation, SETVI (Foxtail, Green)
Summary of the method: as §1

[7] = system: TRITICUM AESTIVUM, CV. APOLLO; experiment: Preemergence herbicidal evaluation, TRZAWO (Wheat, Winter, CV. APOLLO)
Summary of the method: as §1

[8] = system: ORYZA SATIVA, L. TEBONNET; experiment: Preemergence herbicidal evaluation, ORYSAT (Rice, Tebonnet)
Summary of the method: as §1

[9] = system: ECHINOCHLOA CRUS-GALLI, (L) BEAU; experiment: Postemergence herbicidal evaluation, ECHCG (Barnyardgrass)
Summary of the method: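 Visual 0–9 ratings against untreated control, taken four to five weeks post-spray, score stand, vigor, malformation, size, chlorosis and overall appearance. Treatment was a postemergence spray at about 0.125 to 0.500 kg/ha on roughly two-week-old seedlings.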

ZEA MAYS L. = experiment: Preemergence herbicidal evaluation, ZEAMX (Corn, Field)
Summary of the method: as §1

For `CC(C)OC(=O)Cn1c(=O)n(C)c(=O)n(-c2cc(N3C(=O)c4cccc(F)c4C3=O)c(F)cc2Cl)c1=O` [Compound 11, Isopropyl 3-[2-chloro-4-fluoro-5-(3-fluoro-phthalimido)phenyl]tetrahydro-5-methyl-2,4,6-trioxo-s-triazine-1(2H)-acetate], the “Herbicide rating (0-9) CHEAL” value (CHENOPODIUM ALBUM, L. [1]; 0.125 kg/ha) was 9.0, the “Herbicide rating (0-9) CHEAL” value (CHENOPODIUM ALBUM, L. [1]; 0.250 kg/ha) was 9.0 and the “Herbicide rating (0-9) CHEAL” value (CHENOPODIUM ALBUM, L. [1]; 0.500 kg/ha) was 9.0. For the same molecule, the “Herbicide rating (0-9) AMBEL” value ([2]; 0.125 kg/ha) was 0.0, the “Herbicide rating (0-9) AMBEL” value ([2]; 0.250 kg/ha) was 0.0 and the “Herbicide rating (0-9) AMBEL” value ([2]; 0.500 kg/ha) was 0.0. For the same molecule, the “Herbicide rating (0-9) CHEAL” value (CHENOPODIUM ALBUM, L. [3]; 0.125 kg/ha) was 9.0, the “Herbicide rating (0-9) CHEAL” value (CHENOPODIUM ALBUM, L. [3]; 0.250 kg/ha) was 9.0 and the “Herbicide rating (0-9) CHEAL” value (CHENOPODIUM ALBUM, L. [3]; 0.500 kg/ha) was 9.0. For the same molecule, the “Herbicide rating (0-9) GLXMAW” value ([4]; 0.125 kg/ha) was 0.0, the “Herbicide rating (0-9) GLXMAW” value ([4]; 0.250 kg/ha) was 0.0 and the “Herbicide rating (0-9) GLXMAW” value ([4]; 0.500 kg/ha) was 0.0. The “Herbicide rating (0-9) CASOB” value (CASSIA OBTUSIFOLIA, L.; 0.125 kg/ha) was 0.0, the “Herbicide rating (0-9) CASOB” value (CASSIA OBTUSIFOLIA, L.; 0.250 kg/ha) was 0.0 and the “Herbicide rating (0-9) CASOB” value (CASSIA OBTUSIFOLIA, L.; 0.500 kg/ha) was 0.0. For the same molecule, the “Herbicide rating (0-9) ECHCG” value ([5]; 0.125 kg/ha) was 0.0, the “Herbicide rating (0-9) ECHCG” value ([5]; 0.250 kg/ha) was 0.0 and the “Herbicide rating (0-9) ECHCG” value ([5]; 0.500 kg/ha) was 0.0. For the same molecule, the “Herbicide rating (0-9) IPOSS” value (IPOMOEA SPP.; 0.125 kg/ha) was 0.0, the “Herbicide rating (0-9) IPOSS” value (IPOMOEA SPP.; 0.250 kg/ha) was 0.0 and the “Herbicide rating (0-9) IPOSS” value (IPOMOEA SPP.; 0.500 kg/ha) was 0.0. The “Herbicide rating (0-9) SETVI” value ([6]; 0.125 kg/ha) was 0.0, the “Herbicide rating (0-9) SETVI” value ([6]; 0.250 kg/ha) was 0.0 and the “Herbicide rating (0-9) SETVI” value ([6]; 0.500 kg/ha) was 0.0. The “Herbicide rating (0-9) TRZAWO” value ([7]; 0.125 kg/ha) was 0.0, the “Herbicide rating (0-9) TRZAWO” value ([7]; 0.250 kg/ha) was 0.0 and the “Herbicide rating (0-9) TRZAWO” value ([7]; 0.500 kg/ha) was 0.0. For the same molecule, the “Herbicide rating (0-9) ORYSAT” value ([8]; 0.125 kg/ha) was 0.0, the “Herbicide rating (0-9) ORYSAT” value ([8]; 0.250 kg/ha) was 0.0 and the “Herbicide rating (0-9) ORYSAT” value ([8]; 0.500 kg/ha) was 0.0. The “Herbicide rating (0-9) ECHCG” value ([9]; 0.125 kg/ha) was 3.0, the “Herbicide rating (0-9) ECHCG” value ([9]; 0.250 kg/ha) was 3.0 and the “Herbicide rating (0-9) ECHCG” value ([9]; 0.500 kg/ha) was 3.0. The “Herbicide rating (0-9) ZEAMX” value (ZEA MAYS L.; 0.125 kg/ha) was 0.0, the “Herbicide rating (0-9) ZEAMX” value (ZEA MAYS L.; 0.250 kg/ha) was 0.0 and the “Herbicide rating (0-9) ZEAMX” value (ZEA MAYS L.; 0.500 kg/ha) was 0.0.
